The record followed here is US20100016355A1, “ALPHA-2B ADRENERGIC RECEPTOR AGONIST AND SEROTONIN-NOREPINEPHRINE REUPTAKE INHIBITOR COMPOSITIONS FOR TREATING CHRONIC PAIN” (priority 2006, published 2010).

This assay relates to Chung rat model of chronic pain (allodynia). The experiment in a line: Chung rat model of chronic pain. Type of assay: in vivo. Conditions: rats. How it is done: Amitriptyline was administered intraperitoneally to rats at a minimally effective dose; that is, the compound was administered at a dose that, when administered alone, is the minimum dose required to relieve pain (this dose was calculated by finding, first, the dose that produced drug's maximum effect—that is, the dose that fully alleviated pain—and dividing that dose by […]; the result is a dose that is slightly less than 50% of the dose that is required to produce the drug's maximum effect) The rats then immediately received one of two alpha-2B receptor agonists, compound No. 95 and compound no. No. 27, or received no additional compound, at all. Compound No. 95 and Compound No. 27 were administered intraperitoneally at ineffective doses; that is, these compounds were administered at doses that, when administered alone, are not effective in relieving pain. Pain reversal was then assessed using the Chung rat model of chronic pain. The model is described by Kim and Chung, Pain, […], at 355-363 (1992) and in U.S. Pat. No. 7,091,232, both of which are incorporated by reference herein.

For `C1=NC(CC2CCc3ccccc3C2)CN1` (stereo not shown) [Compound No. 27], the “Pain Reversal” value (Compound No. 27 10 μg/kg i.p. (ineffective dose alone) given immediately after amitriptyline 30 μg/kg i.p.) is 81%.
`CN(C)CCC=C1c2ccccc2CCc2ccccc21` [Amitriptyline, reference compound]: the “Pain Reversal” value was 43% (amitriptyline alone, 30 μg/kg intraperitoneally (minimally effective dose)) and 43% (amitriptyline alone, 30 μg/kg intraperitoneally (minimally effective dose), listed as amitriptyline).
Turning to `C[C@@H](c1c[nH]c(=S)[nH]1)c1cccc2ncccc12` [Compound No. 95], the “Pain Reversal” value (Compound No. 95 1 μg/kg i.p. (ineffective dose alone) given immediately after amitriptyline 30 μg/kg i.p.) is reported as 80%.
